Experimental data: US20240197756A1, “METHODS OF TREATMENT WITH NEUROACTIVE STEROIDS” (priority 2021, published 2024)

How the values were obtained:
harmaline-induced tremor = assay: rHIT model, coadministration of Compound 1 and Compound 2; assay type: in vivo, rat; conditions: Compound 2 p.o. 60 min before harmaline
Experimental: Rat Harmaline Induced Tremor (rHIT): The rHIT model was used to assess the impact of the combination of Compound 1 and Compound 2 on reducing the symptoms of tremor. Male SD rats (SLAC, Shanghai, China) weighing about 250 g at the time of testing were housed in a 12:12 light-dark cycle room throughout the study, with the lights on from 5 a.m. to 5 p.m, and fed ad libitum. […]
The rHIT methods described in Example 5 were used. […] After the 20-minute baseline recording, rats were dosed with harmaline and the post-harmaline effect was measured for 20 minutes. […]

[1] = test system: GABAA receptors in the brain; conditions: cited from earlier work; for power of the alpha-band frequency (qEEG): comparator GABAA PAMs, previously shown (FIG. 7); for beta-band frequency (qEEG): comparator marketed GABAA PAMs, previously shown
[2] = test system: extrasynaptic form of GABAA receptors; conditions: cited from earlier work
[3] = Khodadoustan et al. (2017); cited from earlier work

| Structure (SMILES) | power of the alpha-band frequency (qEEG) [1] | beta-band frequency (qEEG) [1] | also measured |
| --- | --- | --- | --- |
| CC(C)(C)NC(=O)CN1CCC(CNC(=O)c2cc(F)cc(Cl)c2)CC1 [Compound 2, N-((1-(2-(tert-butylamino)-2-oxoethyl)piperidine-4-yl)methyl)-3chloro-5-fluorobenzamide] |  |  | effect on tremor (harmaline-induced tremor): tremor-reducing effects |
| CC(=O)[C@H]1CC[C@H]2[C@@H]3CC[C@H]4C[C@H](O)CC[C@]4(C)[C@H]3CC[C@]12C [allopregnanolone] | decrease | Increases | potency at synaptic and extrasynaptic receptors [2]: equipotent |
| CCOC(=O)C1=C(COCCN)NC(C)=C(C(=O)OC)C1c1ccccc1Cl (centres unmarked) [amlodipine besylate] |  |  | Cmax, evening administration compared to morning dosing [3]: increased; Tmax, evening administration compared to morning dosing [3]: reduced |
| O=C1Nc2ccc(Cl)cc2C(c2ccccc2Cl)=NC1O (centres unmarked) [lorazepam] | decrease | Increases |  |
